The text below walks through data of paper PMC3511610 (Pediatric blood & cancer, 2012).

Data set [1] is described as follows: Phase I trial: toxicity, dose-limiting toxicities, MTD. The conditions noted are these: for recommended phase 2 dose, vorinostat part of the combination: with bortezomib. Format: in vivo, human (pediatric patients).
Data set [2] in a line: Bortezomib plasma pharmacokinetics, day 8 cycle 1, three-compartment model. Format: in vivo, human (pediatric patients).
The test system of a further data set is NF-κB. In words: NF-κB activity by ELISA in patient PBMCs. Format: in vivo, human (pediatric patients).
The next data set concerns Grp78. In words: Grp78 immunoblot in patient PBMCs. Format: in vivo, human (pediatric patients). The conditions noted are these: three evaluable of seven samples (four degraded); vs pre-treatment. Background: A western blot detects proteins with antibodies after separation by electrophoresis.
The conditions of data set [3]: prior pediatric single agent trials; cited from earlier work.
The conditions of data set [4]: cited from earlier work.
The conditions of data set [5]: Pediatric Preclinical Testing Program (PPTP); cited from earlier work.
The next data set concerns solid tumor. The conditions noted are these: Pediatric Preclinical Testing Program (PPTP); cited from earlier work.
For data set [6] the following is noted: no reference given, cited from earlier work.
The conditions of data set [7]: single agent, children with recurrent or refractory cancer; cited from earlier work.
Data set [8] is described as follows: Vorinostat pharmacokinetics, day 8 cycle 1, noncompartmental.
Where [9] appears, read: Mean, n=6, single intravenous dose of 1.3 mg/m^2, day 8 cycle 1, plasma.

Entries after “also recorded” stand apart in the source; their conditions may differ.

In general, AUC(0-inf) refers to the area under the concentration-time curve extrapolated to infinity. Higher therefore signals more exposure. One may read the AUC(0-t) as the area under the concentration-time curve up to a stated or last time point. High values mean high exposure, low ones low exposure. In the case of `CC(C)C[C@H](NC(=O)[C@H](Cc1ccccc1)NC(=O)c1cnccn1)B(O)O` [bortezomib, Bortezomib], the “MTD, bortezomib part of the combination” value in data set [1] (i.v. days 1, 4, 8, 11, with vorinostat 230 mg/m^2/day, bortezomib not escalated) is listed as 1.3 mg/m^2/day. In addition, in [2] (setting [9]), the “Cl (clearance)” value was determined as 9.1 L/hr/m^2 and the “Vc (volume of distribution in the central compartment)” value was found to be 13 L/m^2. Also, in data set [2] (cycle 1, dosed every three days, suggests accumulation), the “plasma concentrations prior to the day 8 dose” value is given as “low plasma concentrations”. In [2] (human, plasma, iv, 1.3 mg/m2), this compound had an AUC(0-inf) of 485 ng·h/mL and an AUC(0-t) of 82 ng·h/mL. In the data set with NF-κB (Figure 1, 0 vs 24 hours), the “pretreatment NF-κB activity levels in PBMCs compared to levels 24 hours after bortezomib administration” value was “the same or increased”. Moreover, in the data set with NF-κB (PBMCs from solid tumor patients, with vorinostat), the “NF-κB activity in PBMCs after bortezomib treatment” value is on record as “did not observe a decrease in NF-κB activity”. For the same compound, the “NF-κB activation in PBMCs at 24 hours” value in the data set on NF-κB (in approximately half of the patient samples) was “increase in NF-κB activation”. Besides, in the data set with Grp78, the “Grp78 protein expression in PBMCs after bortezomib treatment” value was “no induction of Grp78 detected; also recorded: not able to detect Grp78 induction”. Also, the “Dose-limiting toxicities (DLTs)” value in data set [3] was “thrombocytopenia, confusion, and febrile neutropenia associated with hypotension and an elevated creatinine”. The “recommended phase 2 regimen in adults with solid tumors, bortezomib dose” value in data set [4] (days 1, 4, 8, and 11, with vorinostat) is 1.3 mg/m^2/dose. Further, the “in vitro anti-tumor activity” value in [5] is “widespread in vitro anti-tumor activity”. Moreover, the “in vivo solid tumor activity” value in the data set with solid tumor was “limited to rhabdomyosarcoma, Wilms tumor, osteosarcoma, and medulloblastoma”. The “adult MTD” value in data set [6] is listed as 1.3 mg/m^2/day.

The term Tmax denotes the time from dosing to the highest level. For the compound `O=C(CCCCCCC(=O)Nc1ccccc1)NO` [vorinostat, Vorinostat], the “MTD, vorinostat part of the combination” value in data set [1] (PO days 1–5 and 8–12, with bortezomib 1.3 mg/m^2/day days 1, 4, 8, 11) is reported as 230 mg/m^2/day. Also, the “recommended phase 2 dose, vorinostat part of the combination” value in [1] (PO days 1–5 and 8–12 of a 21 day cycle) worked out at 230 mg/m^2/day; in [1] (orally days 1–5 and 8–12 of a 21 day cycle), 230 mg/m^2/dose. The DLTs result in [7] was “neutropenia, thrombocytopenia, and hypokalemia”. Besides, in data set [4] (daily for eight days every 21 days, with bortezomib), the “recommended phase 2 regimen in adults with solid tumors, vorinostat dose” value is recorded as 400 mg. In addition, the adult recommended dose in data set [6] (daily) is 400 mg. The Tmax in data set [8] (human, serum, po, 180 mg/m^2) was 6 h. Also, in data set [8] (mean over patients, dose levels 180–300 mg/m^2 oral, day 8 cycle 1), the mean apparent clearance turned out to be 198 L/m^2.
